Results as given in patent publication US11053205B2, “Phenazine derivatives as antimicrobial agents” (University of Florida Research Foundation, Incorporated, priority 2017, dated 2021).
≈ marks a conversion by molar mass, not a printed value. Where two headings read alike, the source gives them in different places. Marks after values point to notes of the source that are not given here.

Legend:
MRSA BAA-1707 biofilms = test: Calgary Biofilm Device (CBD) assay, MBC/MBEC; conditions: for MRSA BAA-1707 MBEC / MRSA BAA-1707 MBC: CBD; for MRSA BAA-1707 MBEC: biofilm eradication; for MRSA BAA-1707 MBC: planktonic killing
VRE 700221 = test: MIC, broth microdilution (CLSI); conditions: for VRE 700221 MIC: 16 to 18 hours at 37° C.
MRSE 35984 = test: MIC, broth microdilution (CLSI); conditions: for MRSE 35984 MIC: 16 to 18 hours at 37° C.
MRSA BAA-1707 = test: MIC, broth microdilution (CLSI); conditions: 16 to 18 hours at 37° C.; 0.10 = lowest concentration tested
MRSA-2 biofilms = test: Calgary Biofilm Device (CBD) assay, MBC/MBEC; conditions: for MRSA-2 MBEC: biofilm eradication; for MBC: Staphylococcus aureus, MRSA, read-out: MRSA-2 MBC
MRSE 35984 biofilms = test: Calgary Biofilm Device (CBD) assay, MBC/MBEC; conditions: CBD; for MRSE 35984 MBEC: biofilm eradication; for MRSE 35984 MBC: planktonic killing

SMILES	IC50 (HeLa cells)	MRSA BAA-1707 MBEC (MRSA BAA-1707 biofilms)	VRE 700221 MIC (VRE 700221)	MRSE 35984 MIC (MRSE 35984)	MRSA BAA-1707 MIC (MRSA BAA-1707)	further results
Cc1ccc2nc3c(O)c(Br)cc(Br)c3nc2c1 [52A]	> 100 µM					
CCc1ccc2nc3c(O)c(Br)cc(Br)c3nc2c1 [53A]	> 50 µM					
CCCc1ccc2nc3c(O)c(Br)cc(Br)c3nc2c1 [54A]	> 50 µM					
Cc1cc(C)c2nc3c(Br)cc(Br)c(O)c3nc2c1 [56A]	> 100 µM	4.69 µM				
Cc1cc2nc3c(O)c(Br)cc(Br)c3nc2c(C)c1C [59A]	> 100 µM					
Oc1c(Br)cc(Br)c2nc3cc(Oc4ccccc4)ccc3nc12 [63A]	> 100 µM	2.35 µM	0.2 µM	0.1 µM	0.075 µM	
CCN(CC)c1ccc2nc3c(O)c(Br)cc(Br)c3nc2c1Br [64A]	> 100 µM	4.69 µM				
Cc1ccc2nc3c(O)ccc(Br)c3nc2c1 [66A]	> 100 µM					
COCCOCCOCCOCCOC(=O)Oc1c(Br)cc(Br)c2nc3cc(Cl)ccc3nc12 [77A]					0.0005 µM	
COCCOCCOCCOCCOC(=O)Oc1c(Br)cc(Br)c2nc3cc(Oc4ccccc4)ccc3nc12 [78A]					0.1 µM	
CC1=C(C)C(=O)C(COC(=O)OCOc2c(Br)cc(Br)c3nc4ccccc4nc23)=C(C)C1=O [86A]		75 µM			2.35 µM	
CC1=C(C)C(=O)C(COC(=O)OCOc2c(Br)cc(Br)c3nc4cc(Cl)ccc4nc23)=C(C)C1=O [87A]	> 100 µM	12.5 µM			0.15 µM	Hemolysis at 200 μM (human red blood cells): 2.7%
N#CC(C#N)=NNc1cccc(Cl)c1 [CCCP, reference compound]						MRSA-2 MBEC (MRSA-2 biofilms; CBD): 1000 µM; MRSA-2 MBC (MRSA-2 biofilms; CBD, planktonic killing): 31.3 µM; MRSE 35984 MBEC (MRSE 35984 biofilms): 93.8 µM; MRSE 35984 MBC (MRSE 35984 biofilms): 31.3 µM
OC[C@H]1O[C@@H](Oc2c(Br)cc(Br)c3nc4ccccc4nc23)[C@H](O)[C@@H](O)[C@@H]1O [Compound 28]			>100 µM	>100 µM	>100 µM	
COCCOCCOCCOC(=O)OCOc1c(Br)cc(Br)c2nc3ccccc3nc12 [Compound 30]			>100 µM	>100 µM	>100 µM	
CS(=O)(=O)N1CCN(C(=O)Oc2c(Br)cc(Br)c3nc4ccccc4nc23)C1=O [Compound 31]		75 µM	3.13 µM	0.78 µM		
Oc1c(Br)cc(Br)c2nc3cc(Oc4ccccc4)ccc3nc12 [Compound 34]		2.35 µM	0.2 µM	0.1 µM	0.1 µM	
CCN(CC)c1ccc2nc3c(O)c(Br)cc(Br)c3nc2c1Br [Compound 35]		4.69 µM	0.30 µM	0.1 µM	0.15 µM	MRSE 35984 MBEC (MRSE 35984 biofilms): 1.56 µM
CCc1cccc2nc3c(Br)cc(Br)c(O)c3nc12 [Compound 37]			>100 µM	>100 µM	>100 µM	
CCOC(=O)c1ccc2nc3c(O)c(Br)cc(Br)c3nc2c1 [Compound 38]					>100 µM	

SMILES	IC50 (HeLa cells)	MRSA BAA-1707 MBEC (MRSA BAA-1707 biofilms)	VRE 700221 MIC (VRE 700221)	MRSE 35984 MIC (MRSE 35984)	MRSA BAA-1707 MIC (MRSA BAA-1707)	further results
CCCc1ccc2nc3c(O)c(Br)cc(Br)c3nc2c1 [Compound 54A]		75 µM	3.13 µM	0.15^a μM	0.1^b μM	MRSA BAA-1707 MBC (MRSA BAA-1707 biofilms): 37.5 µM; Hemolysis at 200 μM (human red blood cells): 2.1%; MRSE 35984 MBEC (MRSE 35984 biofilms): 37.5 µM; MRSE 35984 MBC (MRSE 35984 biofilms): 25 µM
Cc1ccc2nc3c(Br)cc(Br)c(O)c3nc2c1C [Compound 57A]			>100 µM	>100 µM	>100 ^ μM	
CCc1cccc2nc3c(Br)cc(Br)c(O)c3nc12 [Compound 58A]			>100 µM	>100 µM	>100 ^ μM	
Cc1cc2nc3c(O)c(Br)cc(Br)c3nc2c(C)c1C [Compound 59A]		75 µM		0.1^b μM	0.59^a μM	MRSA BAA-1707 MBC (MRSA BAA-1707 biofilms): 150 µM; Hemolysis at 200 μM (human red blood cells): 1.3%; MRSE 35984 MBEC (MRSE 35984 biofilms): 5 µM; MRSE 35984 MBC (MRSE 35984 biofilms): 25 µM
CCOc1ccc2nc3c(O)c(Br)cc(Br)c3nc2c1 [Compound 60A]			>100 µM	18.8^a μM	>100 ^ μM	
CCOC(=O)c1ccc2nc3c(O)c(Br)cc(Br)c3nc2c1 [Compound 62A]			2.35^a μM			
CCCc1cn(Cc2ccc3nc4c(OC(C)=O)c(Br)cc(Br)c4nc3c2)nn1 [Compound 74A]			>100 µM		100 ^ μM	
COCCOCCOCC(=O)Oc1c(Br)cc(Br)c2nc3ccccc3nc12 [Compound 75A]	> 100 µM	75 µM	3.13 µM		0.59^a μM	MRSA BAA-1707 MBC (MRSA BAA-1707 biofilms): 18.8 µM; Hemolysis at 200 μM (human red blood cells): 1.2%; MRSE 35984 MBEC (MRSE 35984 biofilms): 37.5 µM; MRSE 35984 MBC (MRSE 35984 biofilms): 9.38 µM
COCCOCCOCCOCCOC(=O)Oc1c(Br)cc(Br)c2nc3cc(Cl)ccc3nc12 [Compound 77A]	> 100 µM		0.1^b μM	0.1^b μM	0.0005^a μM	Hemolysis at 200 μM (human red blood cells): 1.1%; MRSE 35984 MBEC (MRSE 35984 biofilms): 18.8 µM; MRSE 35984 MBC (MRSE 35984 biofilms): 9.38 µM
COCCOCCOCCOCCOC(=O)Oc1c(Br)cc(Br)c2nc3cc(Oc4ccccc4)ccc3nc12 [Compound 78A]		4.69 µM	0.3^a μM	0.1^b μM	0.1^b μM	MRSA BAA-1707 MBC (MRSA BAA-1707 biofilms): 18.8 µM; Hemolysis at 200 μM (human red blood cells): ≤1%
OC[C@H]1O[C@@H](Oc2c(Br)cc(Br)c3nc4ccccc4nc23)[C@H](O)[C@@H](O)[C@@H]1O [Compound 79A]						Hemolysis at 200 μM (human red blood cells): ≤1%
COCCOCCOCCOC(=O)OCOc1c(Br)cc(Br)c2nc3ccccc3nc12 [Compound 80A]			>100 µM	>100 µM	>100 µM	Hemolysis at 200 μM (human red blood cells): 1.4%
O=C(OCCOCCOCCOCCO)OCOc1c(Br)cc(Br)c2nc3ccccc3nc12 [Compound 82A]	> 100 µM		>100 µM	>100 µM	>100 µM	Hemolysis at 200 μM (human red blood cells): 2.7%
O=C(OCCSSCCOC(=O)c1ccccc1)OCOc1c(Br)cc(Br)c2nc3ccccc3nc12 [Compound 85A]	> 100 µM		>100 µM	>100 µM	>100 µM	Hemolysis at 200 μM (human red blood cells): 1.3%
C[C@H]1c2cccc(O)c2C(=O)C2=C(O)[C@]3(O)C(=O)C(C(N)=O)=C(O)[C@@H](N(C)C)[C@@H]3[C@@H](O)[C@@H]21 [Doxycycline]						MRSA-2 MBEC (MRSA-2 biofilms; CBD): 46.9 µM; MBC (MRSA-2 biofilms): 2 µM (≈ 0.889 µg/mL)
Cc1ccc2nc3c(O)c(Br)cc(Br)c3nc2c1C [HP 1-19]						MIC (VRE 700221; Enterococcus, VRE, read-out: VRE 700221 MIC, 16 to 18 hours at 37° C.): 0.15 µM (≈ 0.0573 µg/mL); MIC (MRSE 35984; Staphylococcus epidermidis, MRSE, read-out: MRSE 35984 MIC, 16 to 18 hours at 37° C.): 0.3 µM (≈ 0.115 µg/mL); Hemolysis at 200 μM (human red blood cells; human, 1 h, 200 μM, pH 7.2): 5.3%
NC(=O)c1cnccn1 [Pyrazinamide]						MRSA-2 MBEC (MRSA-2 biofilms; CBD): >2000/>2000 μM; MBC (MRSA-2 biofilms): > 2000 µM
CCCc1cn(Cc2ccc3nc4c(OC(C)=O)c(Br)cc(Br)c4nc3c2)nn1 [compound 74]				18.8 µM		
CC(=O)NC[C@H]1CN(c2ccc(N3CCOCC3)c(F)c2)C(=O)O1 [linezolid, reference compound]					12.5 ^ μM	MBC (MRSA BAA-1707 biofilms; Staphylococcus aureus, read-out: MRSA BAA-1707 MBC): 31.3 µM (≈ 10.6 µg/mL); biofilm eradication activities against MRSA biofilms (MRSA BAA-1707 biofilms; at 2,000 μM (highest concentration tested)): no biofilm eradication activities; Hemolysis at 200 μM (human red blood cells; human, 1 h, 200 μM, pH 7.2): ≤1%
